In PubChem BioAssay (NCI):
“And” between values parts separate entries of the source, which are not always exact repeats. Identical values can stand only once.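 96-well plates; 48 h exposure; 5 concentrations. Endpoints by linear interpolation between flanking doses. Not reached: highest tested concentration assigned. The concentration for 50% growth inhibition is given as GI50. TGI: concentration producing complete growth inhibition.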

System: MDA-MB-468 breast
Test: NCI anticancer screen, dose series, 48 h

COc1cc(-c2nn(-c3ccc(NC(=O)c4ccc(Cl)c(Cl)c4)cc3)cc2-c2ccncc2)ccc1Cl
GI50: 4350 nM | TGI: > 100000 nM

CCN(CC)CCOc1nc2ccc(OC)cc2c2c1-c1ccc(OC)cc1C2=O
GI50: 3370 nM | TGI: 21700 nM

CCOc1cc2ncc(C#N)c(Nc3ccc(OCc4cccc(F)c4)c(Cl)c3)c2cc1NC(=O)CC1CCSS1 (configuration not stated)
GI50: 427 nM | TGI: 1220 nM

O=C(CSc1nc2ccccc2[nH]1)Nc1ccc(-c2nc3ccccc3s2)c(Cl)c1
GI50: 4450 nM | TGI: > 100000 nM

CNC(=O)c1cc(OC2CCC(NC(=O)Nc3ccc(Cl)c(C(F)(F)F)c3)CC2)ccn1 (configuration not stated)
GI50: 3350 nM | TGI: 14500 nM

Cc1ccc2[nH]cc(-c3nc(-c4c[nH]c5ncccc45)cs3)c2c1
GI50: > 100000 nM | TGI: > 100000 nM

COc1cc(C2C=C(c3cccc(NC(C)=O)c3)Nc3ncnn32)cc(OC)c1OC (configuration not stated)
GI50: 852 nM | TGI: > 23800 nM

COc1ccc(Cl)cc1Nc1nc(C(F)(F)F)ccc1C(=O)N/N=C/c1c(Cl)cccc1Cl
GI50: 6660 nM | TGI: > 100000 nM

CCOC(=O)c1ccc(NC(=O)N2CC(C)OC(C)C2)cc1 (configuration not stated)
GI50: > 100000 nM | TGI: > 100000 nM

COC(=O)N[C@H]1CCc2c(Br)c(OC)c(OC)c(OC)c2-c2ccc(SC)c(=O)cc21
GI50: < 10 nM | TGI: 1230 nM

CC(=O)O[C@H]1CC[C@@]2(C)C(=CC[C@@H]3[C@@H]2CC[C@]2(C)C(c4cccnc4)=CC[C@@H]32)C1
GI50: 2620 nM | TGI: 17500 nM

O=C(Nc1ccc(N2CCNCC2)cc1)c1[nH]ncc1Nc1ncnc2sc3c(c12)CCC3
GI50: 481 nM | TGI: 2230 nM

COc1ccc2nc(N/N=C(\C)c3ccccn3)cc(C)c2c1
GI50: 233 nM | TGI: 815 nM

COc1cc(C2CC(c3ccc(C)cc3)=NN2C=O)ccc1Oc1ccnc2cc(Cl)ccc12 (configuration not stated)
GI50: 2590 nM | TGI: 37800 nM

COc1ccc(-c2nc3sc(C)cn3c2/C=C/C(=O)c2cc(OC)c(OC)c(OC)c2)cc1
GI50: 2760 nM | TGI: 9350 nM

Cc1ccc(-[n+]2c3cc(N)c(C)cc3nc3cc(C)c(Nc4ccccc4)cc32)cc1
GI50: 108 nM | TGI: 371 nM

C=C1CC2(OC1=O)C(=O)N(CCCCCCCN1C(=O)C3(CC(=C)C(=O)O3)c3ccccc31)c1ccccc12 (configuration not stated)
GI50: 984 nM | TGI: 3740 nM

COCCOc1ccc2ncc(C#Cc3cncc(C(=O)Nc4ccc(CN5CCN(C)CC5)c(C(F)(F)F)c4)c3)n2n1
GI50: 988 nM | TGI: 2800 nM

O=C1NCc2ccc3c(-c4cccc(Cl)c4)c[nH]c3c21
GI50: 231 nM | TGI: > 23100 nM

C=C1C(=O)O[C@H]2[C@H]1CC/C(Cn1cc(CNC(=O)Cc3cn(C(=O)c4ccc(Cl)cc4)c4ccc(OC)cc34)nn1)=C\CC[C@@]1(C)O[C@@H]21
GI50: 1220 nM | TGI: 2950 nM

Cc1ccc(CNc2c3ccccc3nc3ccccc23)cc1
GI50: 1490 nM | TGI: 3680 nM

COc1cc2c(cc1OC)C(=O)/C(=C/c1cccc(OCC(=O)c3ccccc3)c1)C2
GI50: 8210 nM | TGI: > 100000 nM

CS(=O)(=O)CCNCc1nc(-c2ccc3ncnc(Nc4ccc(F)c(Cl)c4)c3c2)cs1
GI50: 257 nM | TGI: 2750 nM

COc1ccc(-c2nn3ncccc3c2-c2ccnc(Nc3ccc(Cl)c(C(F)(F)F)c3)n2)cc1
GI50: 5810 nM | TGI: > 20900 nM

O=[N+]([O-])C1C(c2ccccc2)C12c1ccccc1-c1ccccc12 (configuration not stated)
GI50: 582 nM | TGI: 13600 nM

CCOC(=O)c1c2c(n3ccc(NC(=O)CCN4CCCC4)cc13)C(=O)c1ncccc1C2=O
GI50: 1710 nM | TGI: 3350 nM

C=C1C(=O)O[C@H]2[C@H]1CC/C(COC(=O)c1cc3cc(F)ccc3[nH]1)=C\CC[C@@]1(C)O[C@@H]21
GI50: 1860 nM | TGI: 3790 nM

COc1cc(/C(C#N)=C/c2ccc3c(c2OC)OCO3)cc2c1OCO2
GI50: 59.2 nM | TGI: 2070 nM

CNc1ccc2nc3ccc(=[N+](C)C)cc-3sc2c1
GI50: 801 nM and 542 nM | TGI: 2890 nM and 3050 nM

O=c1oc2cc(OS(=O)(=O)c3ccc(F)cc3)ccc2c2c1CCCCC2
GI50: 3870 nM | TGI: > 100000 nM

CN(C)c1cccc2c(S(=O)(=O)N[C@H]3CC[C@H]4[C@@H]5CCc6cc(O)ccc6[C@H]5CC[C@]34C)cccc12
GI50: 2100 nM | TGI: 9710 nM

Cc1cc(-c2ncc(CC(=O)Nc3ccc(-c4cnccn4)cn3)cc2C)ccn1
GI50: 3180 nM | TGI: 57500 nM

O=C(NNc1nc(Cl)nc(N2CCN(C(c3ccccc3)c3ccccc3)CC2)n1)c1ccccc1
GI50: 1900 nM | TGI: 6030 nM

O=C(CCCCCCSc1nc(-c2ccccc2)cc(-c2ccc(Cl)cc2)n1)NO
GI50: 2020 nM | TGI: 5790 nM

COc1ccc2c(c1)[nH]c(=O)c1c3cc(C)c(C)cc3cn21
GI50: 155 nM | TGI: 1590 nM

CC(=O)Nc1ccc2c(c1)c(C1=C(c3cn(C)c4ccccc34)C(=O)NC1=O)cn2C
GI50: 790 nM | TGI: > 25000 nM
